SMILES strings stand for the structures. The source made the active and inactive calls. The calls are words filed in the database; no cut-off is given here. A value given as a limit tells only on which side of the number the result lay.

One assay has as its system Hepatocyte. Put plainly: cells. Type of assay: functional. As to conditions: Rattus norvegicus, 24 h, read-out: LC50 (the source's name).
In the case of `COc1ccc2cc(C(O)(c3ccc(F)cc3)c3cccnc3)oc2c1` (stereo not drawn), the CC50 is above 100 µM.
The same measure, in the same setting: the value for `COc1ccc(C(c2cc3ccc(OC)cc3o2)n2cncn2)cc1` (stereo not drawn) was 90 µM.
The same measure, in the same setting: the value for `COc1ccc2cc(C(c3ccc(F)cc3)n3cncn3)oc2c1` (stereo not drawn) was 100 µM; that for `COc1ccc(C(c2cc3ccc(OC)cc3o2)n2ccnc2)cc1` (stereo not drawn) was 50 µM; that for `CC(C)(C#N)c1cc(Cn2cncn2)cc(C(C)(C)C#N)c1` [ANASTROZOLE] was above 200 µM.
Same read-out and setting: the value for `COc1ccc2cc(C(c3ccc(Cl)cc3)n3cncn3)oc2c1` (stereo not drawn) was 50 µM; that for `COc1ccc(C(O)(c2cccnc2)c2cc3ccc(OC)cc3o2)cc1` (stereo not drawn) was 100 µM.

The subject of the next assay is Hepatocyte.
Test: not given
Particulars: Rattus norvegicus.
Consider `COc1ccc2cc(C(O)(c3ccc(F)cc3)c3cccnc3)oc2c1` (stereo not drawn), for which the LC50 entry is “inactive”.
The same measure, in the same setting: the value for `COc1ccc(C(c2cc3ccc(OC)cc3o2)n2cncn2)cc1` (stereo not drawn) was “inactive”; that for `COc1ccc2cc(C(c3ccc(F)cc3)n3cncn3)oc2c1` (stereo not drawn) was “inactive”.
Still for that read-out and setting: the value for `COc1ccc(C(c2cc3ccc(OC)cc3o2)n2ccnc2)cc1` (stereo not drawn) was “inactive”.
On the same count and under the same terms, the value for `COc1ccc2cc(C(c3ccc(Cl)cc3)n3cncn3)oc2c1` (stereo not drawn) was “inactive”; that for `COc1ccc(C(O)(c2cccnc2)c2cc3ccc(OC)cc3o2)cc1` (stereo not drawn) was “inactive”.

The values above are taken from ChEMBL document CHEMBL1149390, “Potent CYP19 (aromatase) 1-[(benzofuran-2-yl)(phenylmethyl)pyridine, -imidazole, and -triazole inhibitors: synthesis and biological evaluation” (J Med Chem, 2006).
